Experimental findings from EP3263567A1, “CARBOXAMIDE-SUBSTITUTED PYRAZOLES AND TRI(HETERO)ARYL-PYRAZOLES FOR USE IN METHODS OF TREATING AND / OR PREVENTING CARDIOVASCULAR DISEASES AND / OR COMORBIDITIES THEREOF” (AiCuris Anti-infective Cures GmbH, priority 2016, dated 2018) are described below.

Where only a bound is given, the exact number is not on record here.

In one series the target is T1, Nav1.5 (Homo sapiens, UniProt Q14524).
T1 construct: expressed in transfected cells; host or cells: CHO (ATCC CCL-61), stably transfected; selection with Geneticin and Puromycin
Briefly: Whole-cell patch-clamp, Nav1.5 currents in stably transfected CHO cells. Format: cell-based. As to the method:
(§1) [drawing 92] i.e. 4-[5-[3-Chloro-5-(trifluoromethoxy) phenyl]-1-(pyridin-3-yl)-1H-pyrazol-3-yl]-5,6-dihydro-7H-pyrrolo[3,4-d]pyrimidin-7-one, was tested for its effects on human Nav1.5, Cav1.2, Kv1.5, and HCN4 currents recorded from stably transfected CHO cells. The effect of four concentrations of this compound on these currents was investigated.
The whole-cell patch-clamp technique was used to investigate the effect of Compound A on the currents of Nav1.5, Kv1.5, Cav1.2 and HCN4 channels, expressed in CHO cells (ATCC, CCL-61). Compound A was tested at concentrations of 200 nM, 600 nM, 2000 nM and 6000 nM. For all ion channels 0.1% DMSO was used as vehicle and ZD7288 as suitable blockers were applied to assure accuracy of the method. The selection antibiotics can be dervied from the Table below:
Concentrations of 200 nM, 600 nM, 2000 nM and 6000 nM of Compound A were tested. […]
(§2) The 35 mm culture dishes upon which cells were seeded at a density allowing single cells to be recorded were placed on the dish holder of the microscope and continuously perfused (at approximately 1 mL/min) with the bath solution described in section 4.7. […]
(§3) As soon as a stable seal could be established outward tail currents were measured upon pulses described in the Table below: […]
Values in Ampere (A) of the peak amplitudes of outward tail currents were generated for each voltage step. […] The recorded current amplitudes at the steady state level of current inhibition were compared to those from control conditions measured in the pre-treatment phase of the same cell. The amount of current block was calculated as percentage of control. To determine whether the observed current inhibition was due to Compound A-interaction with the respective ion channel or due to current rundown, these residual currents were compared to those measured in vehicle treated cells. Data from at least two individual experiments were collected and the corresponding mean values and standard deviations were calculated. […]

The target in another series is T2, Cav1.2 (Homo sapiens, UniProt Q13936).
T2 construct: expressed in transfected cells; host or cells: CHO (ATCC CCL-61), stably transfected; selection with Hygromycin, Geneticin and Zeocin
Put plainly: Whole-cell patch-clamp, Cav1.2 currents in stably transfected CHO cells. The format is cell-based. The conditions noted are these: summary statement. As to the method: as §1
(§4) The whole-cell patch-clamp technique was used to investigate the effect of Compound A on the currents of Nav1.5, Kv1.5, Cav1.2 and HCN4 channels, expressed in CHO cells (ATCC, CCL-61). Compound A was tested at concentrations of 200 nM, 600 nM, 2000 nM and 6000 nM. […]
as §2, §3
(§5) Values in Ampere (A) of the peak amplitudes of outward tail currents were generated for each voltage step. […] The recorded current amplitudes at the steady state level of current inhibition were compared to those from control conditions measured in the pre-treatment phase of the same cell. The amount of current block was calculated as percentage of control. […]
Background: In patch-clamp work, channel activity is measured electrically.

The target in the next series is T3, Kv1.5 (Homo sapiens, UniProt P22460).
T3 construct: expressed in transfected cells; host or cells: CHO (ATCC CCL-61), stably transfected; selection with Hygromycin
Briefly: Whole-cell patch-clamp, Kv1.5 currents in stably transfected CHO cells. The format is cell-based. The conditions noted are these: summary statement. As to the method: as §1, §4, §2, §3, §5

The next series in a line: in vivo. To be noted: both, Beagle, dog, po, 30 mg/kg.

T1 sequence (Q14524 whole entry): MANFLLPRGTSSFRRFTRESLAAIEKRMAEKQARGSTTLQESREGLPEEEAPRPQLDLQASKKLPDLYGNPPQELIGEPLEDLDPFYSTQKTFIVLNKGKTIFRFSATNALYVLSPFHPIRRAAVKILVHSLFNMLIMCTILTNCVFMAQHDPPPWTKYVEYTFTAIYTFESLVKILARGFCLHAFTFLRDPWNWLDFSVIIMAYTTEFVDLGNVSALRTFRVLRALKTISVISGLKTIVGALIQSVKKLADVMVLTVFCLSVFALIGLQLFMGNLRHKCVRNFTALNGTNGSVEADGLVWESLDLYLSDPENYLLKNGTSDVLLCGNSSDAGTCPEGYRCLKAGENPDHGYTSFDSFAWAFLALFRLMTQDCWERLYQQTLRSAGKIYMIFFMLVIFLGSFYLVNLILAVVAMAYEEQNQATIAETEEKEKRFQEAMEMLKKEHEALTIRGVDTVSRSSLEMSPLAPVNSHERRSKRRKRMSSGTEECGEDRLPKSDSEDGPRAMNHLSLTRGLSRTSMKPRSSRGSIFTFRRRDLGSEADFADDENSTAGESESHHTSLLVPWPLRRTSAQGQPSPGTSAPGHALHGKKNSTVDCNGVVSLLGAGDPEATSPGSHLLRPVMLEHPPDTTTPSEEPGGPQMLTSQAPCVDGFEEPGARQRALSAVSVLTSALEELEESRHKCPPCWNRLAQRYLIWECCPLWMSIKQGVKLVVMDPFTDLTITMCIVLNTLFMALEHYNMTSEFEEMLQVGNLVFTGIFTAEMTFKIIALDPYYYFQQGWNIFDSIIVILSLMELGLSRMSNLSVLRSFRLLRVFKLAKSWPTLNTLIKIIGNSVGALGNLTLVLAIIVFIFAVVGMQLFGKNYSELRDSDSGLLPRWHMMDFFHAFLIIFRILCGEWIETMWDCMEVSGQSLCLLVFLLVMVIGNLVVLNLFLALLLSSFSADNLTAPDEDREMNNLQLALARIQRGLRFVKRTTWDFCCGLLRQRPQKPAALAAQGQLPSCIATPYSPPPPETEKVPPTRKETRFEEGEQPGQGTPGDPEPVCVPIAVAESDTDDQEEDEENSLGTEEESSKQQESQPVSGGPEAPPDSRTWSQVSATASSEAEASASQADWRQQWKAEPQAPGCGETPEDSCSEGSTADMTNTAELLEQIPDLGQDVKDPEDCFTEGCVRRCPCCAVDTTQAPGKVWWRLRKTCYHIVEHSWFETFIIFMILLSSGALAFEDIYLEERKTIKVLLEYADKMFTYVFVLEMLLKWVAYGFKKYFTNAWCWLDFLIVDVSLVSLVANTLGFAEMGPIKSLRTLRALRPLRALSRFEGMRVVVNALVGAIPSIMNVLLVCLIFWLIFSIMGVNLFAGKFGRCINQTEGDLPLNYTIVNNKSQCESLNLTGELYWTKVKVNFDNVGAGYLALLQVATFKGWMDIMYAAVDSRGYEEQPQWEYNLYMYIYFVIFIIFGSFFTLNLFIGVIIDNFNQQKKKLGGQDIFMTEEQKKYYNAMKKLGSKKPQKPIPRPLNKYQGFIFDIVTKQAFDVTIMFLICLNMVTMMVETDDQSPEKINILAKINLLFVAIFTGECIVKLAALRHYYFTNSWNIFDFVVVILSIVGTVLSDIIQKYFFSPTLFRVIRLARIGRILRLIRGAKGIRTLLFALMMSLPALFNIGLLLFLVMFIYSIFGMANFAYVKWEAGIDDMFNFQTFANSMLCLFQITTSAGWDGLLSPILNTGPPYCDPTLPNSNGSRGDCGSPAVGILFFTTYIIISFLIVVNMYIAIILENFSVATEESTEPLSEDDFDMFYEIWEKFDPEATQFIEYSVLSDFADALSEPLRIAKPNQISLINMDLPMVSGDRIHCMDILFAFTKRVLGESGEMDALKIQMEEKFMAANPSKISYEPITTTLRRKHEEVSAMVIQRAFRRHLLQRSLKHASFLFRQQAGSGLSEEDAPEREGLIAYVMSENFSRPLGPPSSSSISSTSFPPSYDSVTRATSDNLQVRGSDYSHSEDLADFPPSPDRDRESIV
T3 sequence (P22460 whole entry): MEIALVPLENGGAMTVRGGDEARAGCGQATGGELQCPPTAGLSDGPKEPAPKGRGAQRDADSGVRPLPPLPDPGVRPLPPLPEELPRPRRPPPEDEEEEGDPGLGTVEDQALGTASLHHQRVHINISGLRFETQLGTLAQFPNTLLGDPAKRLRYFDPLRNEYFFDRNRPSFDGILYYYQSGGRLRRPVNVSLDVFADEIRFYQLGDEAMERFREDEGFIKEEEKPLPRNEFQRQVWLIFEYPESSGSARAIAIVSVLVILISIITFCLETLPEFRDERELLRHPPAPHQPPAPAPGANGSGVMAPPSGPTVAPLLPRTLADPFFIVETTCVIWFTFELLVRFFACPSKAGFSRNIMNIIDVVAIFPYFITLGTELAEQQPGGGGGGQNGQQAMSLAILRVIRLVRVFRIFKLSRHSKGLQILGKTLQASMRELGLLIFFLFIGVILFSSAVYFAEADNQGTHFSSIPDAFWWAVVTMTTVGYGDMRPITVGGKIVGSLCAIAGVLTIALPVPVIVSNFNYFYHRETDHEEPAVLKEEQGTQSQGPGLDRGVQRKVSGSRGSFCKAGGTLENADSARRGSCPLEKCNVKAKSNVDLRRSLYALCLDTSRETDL
Protocol for in vivo: A single oral dose of 30 or 100 mg/kg was applied to dogs. Pharmacokinetic parameters were assessed and compared.
Male and female Beagle dogs.
Plasma concentrations were obtained by LC-MS/MS measurements.

The term IC50 denotes the concentration at which inhibition is half-maximal. The term AUC(0-inf) denotes the area under the concentration-time curve extrapolated to infinity. A lower AUC(0-inf) goes with less exposure. With `O=C1NCc2c1ncnc2-c1cc(-c2cc(Cl)cc(OC(F)(F)F)c2)n(-c2cccnc2)n1` [Compound A, 4-[5-[3-Chloro-5-(trifluoromethoxy)phenyl]-1-(pyridin-3-yl)-1H-pyrazol-3-yl]-5,6-dihydro-7H-pyrrolo[3,4-d]pyrimidin-7-one], at Nav1.5 (at ≤ 6 µM), the “reduction of the current amplitude (Nav1.5, fast inactivated state)” value is “more than 30%”. Moreover, at Nav1.5 (highest concentration tested 6,000 nM, read-out: IC50 (Nav1.5, fast inactivated state)), the IC50 is over 6 µM. Besides, at Nav1.5 (summary statement), the “interaction with ion channels of Nav” value was “do not interact with other ion channels of Nav, Kav, and Cav substantially”. Besides, at Cav1.2, the “interaction with ion channels of Cav” value was “do not interact with other ion channels of Nav, Kav, and Cav substantially”. Also, the “interaction with ion channels of Kav” value at Kv1.5 is “do not interact with other ion channels of Nav, Kav, and Cav substantially”. In “in vivo”, the AUC(0-inf) was 297 µg·h/mL.
